Experimental data from patent US8895079B2, “Combinations of botanical extracts for promoting cardiovascular health” (National Research Council of Canada, priority 2005, dated 2014).
Marks after values point to notes of the source that are not given here.

Columns and labels:
[1] = system: liver CYP7A1 mRNA; test: Example 1: liver CYP7A1 mRNA expression, real-time PCR; type: in vivo, Male Golden Syrian hamsters; settings: relative expression in reference to a housekeeping gene, Example 1, 4 weeks
Protocol: Experiments were also conducted to determine the effect on the expression of genes associated with cholesterol in the liver and intestine. Total RNA was extracted and mRNA was converted to cDNA. The mRNA expression was measured by real-time PCR with four repeats and calculated as relative expression in reference to internal control of a housekeeping gene for each sample. Table 5, FIG. 8b and FIG. 8c summarize the effect of BBRCI and PS on the mRNA expression of CYP7A1 and CYP27A1 in the liver. BBRCI and PS alone tended to increase mRNA expression of both genes. CYP7A1 and CYP27A1 are two rate-limiting enzymes controlling bile acid synthesis, which is one mechanism through which the body removes cholesterol by converting it into bile acids. When BBRCI and PS were combined, a synergistic action appeared to happen.

[2] = system: hamsters fed a diet containing 0.25% cholesterol; test: Example 3: five week hamster study, blood lipid levels, 0.25% cholesterol diet, 0.5% PS; type: in vivo, male Golden Syrian hamsters; settings: BBRCI 100 mg/kg·d and/or PS 0.5% (w/w)
Protocol: In this example, a controlled, five week animal study was performed. Four randomized groups of 12 or 6 male Golden Syrian hamsters were fed isocaloric diets as follows. The dosage of PS was reduced from 1% to 0.5% (w/w) in the diet. Hamster husbandry, living and feeding conditions were similar to that in Example 1. • Control a semi-synthetic casein-corn starch-sucrose diet that contained 0.25% (w/w) cholesterol • BBRCI control diet containing 100 mg/kg·d of BBRCI • PS control diet containing 0.5% (w/w) PS • BBRCI+PS control diet containing 100 mg/kg·d BBRCI and 0.5% (w/w) PS One objective of this example was to determine the effects of each intervention on circulating blood lipids including total cholesterol (T-C), high-density-lipoprotein cholesterol (HDL-C), nonHDL-C (which is indicative of LDL-C levels) and triglyceride (TG) profiles. Table 8 summarizes the effect on blood lipid levels (values are means±SD, n=12). Data were analyzed by one-way ANOVA followed by Tukey test if significance was detected. A significant difference was indicated by a p<0.05. […] When BBRCI and PS were given to hamsters simultaneously, significant synergistic actions were observed on […] and TG levels. A synergistic action of BBRCI and PS was also observed on the ratio of HDL-C and nonHDL-C.

[3] = 0.25% cholesterol diet, 5 weeks, means±SD

`COc1ccc2cc3[n+](cc2c1OC)CCc1cc2c(cc1-3)OCO2` [BBRCI, Berberine chloride] was tested, and the “CYP7A1 mRNA expression” value [1] was 1.30 ± 0.66, the “nonHDL-C Concentration” value ([2]; 0.25% cholesterol diet, 5 weeks) was 173.5 ± 66.5^ab mg/dl and the “HDL-C Concentration” value [2, 3] was 93.1 ± 27.1 mg/dL. The “T-C Concentration” value [2, 3] was 264.7 ± 49.8^a mg/dl, the “TG Concentration” value [2, 3] was 549.1 ± 225.3^a mg/dl and the “HDL-C % difference from Control” value ([2]; Example 3, 5 weeks) was 1.7%. The “HDL-C/nonHDL-C % difference from Control” value ([2]; Example 3, 5 weeks) was 29%, the “T-C % difference from Control” value ([2]; Example 3, 5 weeks) was −7.8% and the “TG % difference from Control” value ([2]; Example 3, 5 weeks) was −0.2%. For the same molecule, the “nonHDL-C % difference from Control” value ([2]; Example 3, 5 weeks) was −11.1% and the HDL-C/nonHDL-C ([2]; ratio, 0.25% cholesterol diet, 5 weeks) was 0.66 ± 0.41^b.
